Reference: PMC3602277 (Bioorganic & medicinal chemistry, 2013)

Experiments:
[1] = system: EGFR; conditions: read-out: EGFR IC50; cited from earlier work
[2] = target: VEGFR-2 (Homo sapiens, UniProt P35968); experiment: Phosphotyrosine ELISA cytoblot, VEGFR-2 kinase inhibition in whole cells; type: cell-based; conditions: for fold less active than standard 20 in VEGFR-2 inhibition assay: ratio of IC50 vs semaxanib 20
[3] = system: A431 cancer cells; experiment: A431 cytotoxicity, CYQUANT cell proliferation assay; conditions: ratio of IC50 vs cisplatin 23
[4] = system: A431 cancer cells
[5] = target: EGFR (Homo sapiens, UniProt P00533); experiment: Phosphotyrosine ELISA cytoblot, EGFR kinase inhibition in whole cells; type: cell-based
EGFR (Homo sapiens, UniProt P00533), sequence (P00533 25-1210): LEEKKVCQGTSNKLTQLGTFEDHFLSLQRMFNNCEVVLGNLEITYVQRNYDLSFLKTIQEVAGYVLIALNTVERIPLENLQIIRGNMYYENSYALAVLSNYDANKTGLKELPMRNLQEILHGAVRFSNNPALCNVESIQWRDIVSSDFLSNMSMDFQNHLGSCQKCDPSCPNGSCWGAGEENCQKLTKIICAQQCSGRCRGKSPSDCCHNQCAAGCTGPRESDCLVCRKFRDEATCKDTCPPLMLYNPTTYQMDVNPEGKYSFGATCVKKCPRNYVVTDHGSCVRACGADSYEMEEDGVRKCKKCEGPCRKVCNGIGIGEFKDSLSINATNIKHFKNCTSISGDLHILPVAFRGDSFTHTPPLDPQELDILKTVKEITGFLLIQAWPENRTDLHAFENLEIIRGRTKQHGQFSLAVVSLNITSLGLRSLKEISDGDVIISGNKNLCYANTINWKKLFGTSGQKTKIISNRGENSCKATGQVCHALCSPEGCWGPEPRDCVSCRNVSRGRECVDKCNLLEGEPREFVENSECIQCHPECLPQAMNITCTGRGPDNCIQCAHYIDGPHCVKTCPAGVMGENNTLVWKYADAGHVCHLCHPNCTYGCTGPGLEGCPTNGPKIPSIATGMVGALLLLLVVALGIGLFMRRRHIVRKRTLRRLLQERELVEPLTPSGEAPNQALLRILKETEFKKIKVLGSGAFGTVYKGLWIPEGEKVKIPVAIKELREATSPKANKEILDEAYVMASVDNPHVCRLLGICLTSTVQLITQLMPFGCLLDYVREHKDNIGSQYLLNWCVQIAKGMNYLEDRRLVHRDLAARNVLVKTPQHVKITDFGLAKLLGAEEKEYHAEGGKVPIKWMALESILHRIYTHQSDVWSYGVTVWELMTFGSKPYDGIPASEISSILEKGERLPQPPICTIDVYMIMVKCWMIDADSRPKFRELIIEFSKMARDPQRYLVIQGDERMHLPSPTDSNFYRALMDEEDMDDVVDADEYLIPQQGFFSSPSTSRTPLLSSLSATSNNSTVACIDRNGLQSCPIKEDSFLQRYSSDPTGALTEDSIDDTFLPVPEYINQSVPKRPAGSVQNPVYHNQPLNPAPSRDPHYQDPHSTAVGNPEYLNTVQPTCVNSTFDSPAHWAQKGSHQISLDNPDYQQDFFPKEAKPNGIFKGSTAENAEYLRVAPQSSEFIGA

[6] = target: PDGFR-β (Homo sapiens, UniProt P09619); experiment: Phosphotyrosine ELISA cytoblot, PDGFR-β kinase inhibition in whole cells; type: cell-based
PDGFR-β, sequence (P09619 33-1106): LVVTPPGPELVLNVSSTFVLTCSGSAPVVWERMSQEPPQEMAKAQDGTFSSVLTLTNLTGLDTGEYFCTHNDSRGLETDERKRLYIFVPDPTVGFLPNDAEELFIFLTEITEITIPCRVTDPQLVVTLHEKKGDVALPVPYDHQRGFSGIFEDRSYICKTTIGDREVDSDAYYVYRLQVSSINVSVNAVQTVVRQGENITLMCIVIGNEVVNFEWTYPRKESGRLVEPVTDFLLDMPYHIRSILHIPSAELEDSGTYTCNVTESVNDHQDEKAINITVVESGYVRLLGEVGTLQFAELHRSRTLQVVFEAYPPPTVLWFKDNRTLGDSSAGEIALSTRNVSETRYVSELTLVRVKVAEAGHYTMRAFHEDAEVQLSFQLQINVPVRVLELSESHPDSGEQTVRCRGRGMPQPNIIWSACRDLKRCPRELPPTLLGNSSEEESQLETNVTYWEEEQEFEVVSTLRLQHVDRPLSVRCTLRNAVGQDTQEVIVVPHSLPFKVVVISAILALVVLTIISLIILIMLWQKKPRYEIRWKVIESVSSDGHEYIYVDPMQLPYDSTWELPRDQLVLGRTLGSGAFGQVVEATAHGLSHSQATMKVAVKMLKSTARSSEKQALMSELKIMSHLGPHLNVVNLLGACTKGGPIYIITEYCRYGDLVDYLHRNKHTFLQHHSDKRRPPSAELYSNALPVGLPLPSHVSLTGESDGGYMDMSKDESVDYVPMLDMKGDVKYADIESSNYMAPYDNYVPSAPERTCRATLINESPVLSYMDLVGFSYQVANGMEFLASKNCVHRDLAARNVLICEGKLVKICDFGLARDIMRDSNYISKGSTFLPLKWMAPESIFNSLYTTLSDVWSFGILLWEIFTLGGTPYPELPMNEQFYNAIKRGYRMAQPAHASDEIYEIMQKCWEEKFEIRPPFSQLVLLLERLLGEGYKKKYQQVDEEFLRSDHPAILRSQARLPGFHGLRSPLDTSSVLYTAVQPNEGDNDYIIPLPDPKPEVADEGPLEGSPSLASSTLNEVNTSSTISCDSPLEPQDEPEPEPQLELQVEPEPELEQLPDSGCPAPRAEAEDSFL

VEGFR-2, sequence (P35968 20-1356): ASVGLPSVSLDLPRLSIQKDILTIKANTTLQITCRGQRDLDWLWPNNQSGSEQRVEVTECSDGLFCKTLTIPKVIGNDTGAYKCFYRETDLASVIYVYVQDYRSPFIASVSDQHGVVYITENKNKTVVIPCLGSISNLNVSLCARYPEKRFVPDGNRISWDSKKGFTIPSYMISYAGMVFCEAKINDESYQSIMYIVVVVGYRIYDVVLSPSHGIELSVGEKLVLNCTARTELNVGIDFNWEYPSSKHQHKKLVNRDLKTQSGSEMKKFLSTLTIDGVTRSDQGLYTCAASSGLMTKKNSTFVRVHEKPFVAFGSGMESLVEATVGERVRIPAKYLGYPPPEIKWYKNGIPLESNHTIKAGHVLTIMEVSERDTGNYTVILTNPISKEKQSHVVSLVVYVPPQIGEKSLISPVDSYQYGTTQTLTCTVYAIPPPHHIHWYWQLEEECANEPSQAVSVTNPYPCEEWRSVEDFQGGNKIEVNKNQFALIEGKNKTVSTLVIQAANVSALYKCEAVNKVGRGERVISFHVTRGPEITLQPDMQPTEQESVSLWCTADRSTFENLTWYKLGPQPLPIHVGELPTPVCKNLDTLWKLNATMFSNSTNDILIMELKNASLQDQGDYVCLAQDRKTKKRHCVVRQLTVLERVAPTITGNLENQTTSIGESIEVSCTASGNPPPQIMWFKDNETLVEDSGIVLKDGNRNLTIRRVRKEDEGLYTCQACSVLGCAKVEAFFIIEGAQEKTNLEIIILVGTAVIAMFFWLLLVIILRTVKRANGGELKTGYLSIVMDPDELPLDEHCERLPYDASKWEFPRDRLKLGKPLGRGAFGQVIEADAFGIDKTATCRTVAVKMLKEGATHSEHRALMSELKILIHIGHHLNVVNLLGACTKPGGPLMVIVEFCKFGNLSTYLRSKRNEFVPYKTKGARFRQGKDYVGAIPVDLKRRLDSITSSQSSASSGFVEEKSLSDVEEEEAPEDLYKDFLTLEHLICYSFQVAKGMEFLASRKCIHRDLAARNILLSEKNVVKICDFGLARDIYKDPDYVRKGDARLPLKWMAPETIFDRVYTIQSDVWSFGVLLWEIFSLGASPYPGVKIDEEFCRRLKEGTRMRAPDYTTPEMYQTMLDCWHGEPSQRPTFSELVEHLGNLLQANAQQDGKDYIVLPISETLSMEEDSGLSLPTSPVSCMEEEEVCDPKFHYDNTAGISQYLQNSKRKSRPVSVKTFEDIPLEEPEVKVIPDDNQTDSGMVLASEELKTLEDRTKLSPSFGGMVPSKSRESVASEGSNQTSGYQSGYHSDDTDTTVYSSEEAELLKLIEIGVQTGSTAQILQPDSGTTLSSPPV

For Clc1cccc(Nc2ncnc3[nH]c4ccccc4c23)c1 [Compound 1], the IC50 [1] is listed as 0.006 µM.
For CC(C)(C)C(=O)Nc1nc(Nc2ccc(Cl)cc2)c2c(n1)[nH]c1cccc(Cl)c12 [Compound 11, N-{5-chloro-4-[(4-chlorophenyl)amino]-9H-pyrimido[4,5-b]indol-2-yl}-2,2-dimethylpropanamide], the “fold less active than standard 20 in VEGFR-2 inhibition assay” value [2] was 2 fold and the “fold less potent than standard 23 in A431 cytotoxicity assay” value [3] was 5 fold.
[NH2][Pt]([NH2])([Cl])[Cl] [Cisplatin (23), cisplatin] showed an IC50 [4] of 10.6 ± 2.9 µM.
For Nc1nc(Nc2ccc(Cl)cc2)c2c(n1)[nH]c1cccc(Cl)c12 [Compound 5, 5-chloro-N^4-(4-chlorophenyl)-9H-pyrimido[4,5-b]indole-2,4-diamine], the “fold more potent than erlotinib in VEGFR-2 inhibition assay” value ([2]; ratio of IC50 vs erlotinib) was 9.4 fold, the “fold more potent than sunitinib in VEGFR-2 inhibition assay” value ([2]; ratio of IC50 vs sunitinib) was 1.4 fold and the “potency relative to standard 20 in VEGFR-2 inhibition assay” value ([2]; vs semaxanib 20) was “equipotent”. For the same compound, the “fold less potent than standard 23 in A431 cytotoxicity assay” value [3] was 4 fold.
With COc1cccc(Nc2nc(NC(=O)C(C)(C)C)nc3[nH]c4cccc(Cl)c4c23)c1 [Compound 14, N-{5-chloro-4-[(3-methoxyphenyl)amino]-9H-pyrimido[4,5-b]indol-2-yl}-2,2-dimethylpropanamide] the “fold less active than standard 20 in VEGFR-2 inhibition assay” value [2] was about 3.5 fold.
For CC(C)(C)C(=O)Nc1nc(Nc2cccc(F)c2)c2c(n1)[nH]c1cccc(Cl)c12 [Compound 13, N-{5-chloro-4-[(3-fluorophenyl)amino]-9H-pyrimido[4,5-b]indol-2-yl}-2,2-dimethylpropanamide], the “fold less active than standard 20 in VEGFR-2 inhibition assay” value [2] was “about 2.5 fold”, the “fold less potent than standard 21 in EGFR inhibition assay” value ([5]; ratio of IC50 vs PD153035 21) was 150 fold and the “fold less active than erlotinib in EGFR inhibition assay” value ([5]; ratio of IC50 vs erlotinib) was 25 fold.
In the case of COc1cccc(Nc2nc(N)nc3[nH]c4cccc(Cl)c4c23)c1 [Compound 8, 5-chloro-N^4-(3-methoxyphenyl)-9H-pyrimido[4,5-b]indole-2,4-diamine], the “fold less active than standard 22 in PDGFR-β inhibition assay” value ([6]; ratio of IC50 vs DMBI 22) is reported as “about 13.5 fold”, the “fold less active than erlotinib in PDGFR-β inhibition assay” value ([6]; ratio of IC50 vs erlotinib) is reported as 4 fold and the “fold less active than corresponding 2-amino pivaloyl compound, VEGFR-2” value ([2]; 7 vs 13, 8 vs 14) is reported as about 1.7 fold. The “fold less active than standard 20 in VEGFR-2 inhibition assay” value [2] was 7 fold.
With CC(C)c1ccc(Nc2nc(NC(=O)C(C)(C)C)nc3[nH]c4cccc(Cl)c4c23)cc1 [Compound 10, N-{5-chloro-4-[(4-isopropylphenyl)amino]-9H-pyrimido[4,5-b]indol-2-yl}-2,2-dimethylpropanamide] the “fold less active than standard 20 in VEGFR-2 inhibition assay” value [2] was about 4 fold.
